Entries after “also recorded” stand apart in the source; their conditions may differ.
System: protease of Aspergillus sp. MTCC 5102
Assay: Protease assayed in the presence of EDTA, PMSF, HgCl2
Assay type: biochemical
Conditions: for Inhibition of protease activity (in words): assayed in the presence of the additive
Experimental: The said fungus Aspergillus sp. MTCC 5102 is grown in malt extract broth containing 2% malt extract and 0.3% peptone in sea water. The 7-day old fungal mat obtained this way was macerated and used as a starter inoculum for the experimental cultures containing glucose or cellulose at a concentration of 1% (w/v). Casein, spray-dried dairy whitener, soybean meal, molasses or corn steep liquor at a 1% concentration was used as the organic nitrogen source. The Czapek Dox broth to which the above mentioned nitrogen-containing substrates were added independently, contained 10 g glucose, 2 g NaNO3, 1 g K2HPO4, 0.5 g MgSO4, 0.5 g KCl and 0.01 g Fe2SO4 L^−1 medium. The pH of the medium was adjusted to 7.0 or 9.0. This medium was prepared with distilled water or sea water. The cultures were grown as shallow static cultures for 4-6 days. The cell-free clear supernatant obtained after filtration through GF/F filters followed by 0.22 μm Nuclepore filters was used as the source of alkaline protease. Protease activity was measured using Azocasein (Sigma Chemicals, Mo, USA) at 2% concentration. Azocasien Units (ACU) released at various temperatures and pH combinations were measured at 440 nm and expressed as an increase in absorbance by 0.001 in 1 minute (Alfredsson, G. A, Gudmundsson H. M., Xiang J. Y., Kristjansson M. M. 1995, Subtilisin-like serine proteases from psychrophilic marine bacteria. J. Mar. Biotech. 3: 71-72). Substrate and enzyme blanks were maintained for all the assays. All the assays were run in triplicates.
The said fungus Aspergillus sp. MTCC 5102 was grown as described in Example 1 and the clear supernatant was used for testing whether the protease enzyme was serine or metalloprotease. For this purpose the enzyme was assayed in the presence of 50 mM […] (EDTA), 2 mM phenylmethylsulfonyl fluoride (PMSF) and 200 μM mercuric chloride (HgCl2).

Compound | % inhibition (50 mM) [%] | Residual specific activity (%) (50 mM) | Inhibition of protease activity (in words) | % inhibition (200 μM) [%] | Residual specific activity (%) (200 μM) | % inhibition (2 mM) [%] | Residual specific activity (%) (2 mM)
O=C(O)CN(CCN(CC(=O)O)CC(=O)O)CC(=O)O [EDTA, ethylenediamine tetraacetic acid] | 6 | 94 | not inhibited; also recorded: no inhibition of activity | – | – | – | –
[Cl][Hg][Cl] [HgCl2, mercuric chloride] | – | – | not inhibited | 14 | 86 | – | –
O=S(=O)(F)Cc1ccccc1 [PMSF, phenylmethylsulfonyl fluoride] | – | – | totally inhibited; also recorded: inhibition of the activity | – | – | 100 | 0

Source: patent US20050101002A1, “Process for production of low temperature active alkaline protease from a deep-sea fungus” (COUNCIL OF SCIENTIFIC & INDUSTRIAL RESEARCH, priority 2003, published 2005)
